Row | melting point | SMILES
1 | 113 to 115 °C | CC(C)(C)NC(=O)[C@@H]1C[C@H](O)CN1C(=O)[C@@H](O)[C@H](Cc1ccccc1)NC(=O)[C@H](CC(N)=O)NC(=O)OCc1ccccc1
2 | 60 to 62 °C | CC1(C)Cc2ccccc2C1c1cncnc1SCc1cccc(F)c1 (centres undefined)
3 | 55 to 57 °C | CCOC(=O)c1cnc2ccc(F)cc2c1Cl
4 | 258 to 266 °C | O=C(Nc1ccc(C(=O)N2CCc3cn[nH]c3-c3sccc32)cc1)c1ccc(F)cc1Cl
5 | 221 to 222 °C | CCn1cc(C(=O)O)c(=O)c2ccc(Cl)c(C)c21
6 | 120 to 123 °C | CCCOCCOC(=O)C1=C(C)NC(C)=C(C(=O)C(C)S(=O)(=O)NC)C1c1cccc([N+](=O)[O-])c1 (centres undefined)
7 | 156 to 158 °C | CC1(C)OCc2cc([C@@H](O)CN[C@H]3CCc4ccc(O)cc4C3)ccc2O1
8 | 95 to 96 °C | N#CC(CCCCOc1ccccc1)(Cn1cncn1)c1ccccc1 (centres undefined)
9 | 196 to 197 °C | CCOC(=O)c1cc2c(C=O)cc3c4ccccc4ccc3c2s1
10 | 48 °C | CCCCCCCCCCCCC/C=C1\C(=O)OCC1(CO)COC(C)=O (centres undefined)
11 | 225 °C | O=C(O)c1ccc(-c2ncn(-c3ccc(OC(F)(F)C(F)(F)F)cc3)n2)cc1
12 | 78 to 80 °C | CC#CCOc1ccc(S(=O)(=O)NC)cc1
13 | 133 °C | O=C(O)C1CCc2c(OCc3ccccc3)cccc21 (centres undefined)
14 | 184 to 186 °C | CCC(O)CN1CCN(C2Cc3ccc(F)cc3Sc3ccc(N)cc32)CC1 (centres undefined)
15 | 108 to 112 °C | Cc1cc(C(=O)N2Cc3ccc(C(=O)NCc4cccnc4)n3Cc3ccccc32)ccc1-c1ccccc1
16 | 117 to 118 °C | CCOC(=O)c1cn(Cc2ccccc2)nc1OCc1ccc(OCc2nc(-c3ccco3)oc2C)c(OC)c1
17 | 159 to 162 °C | CCOC(=O)c1cn(-c2cc(N)c(F)cc2F)c2c(OC)c(F)c(F)cc2c1=O
18 | 183 to 184 °C | O=C1NCC(c2cccs2)SCC1N1C(=O)c2ccccc2C1=O (centres undefined)
19 | 176 °C | O=C(O)C(c1ccc2c(c1)OCO2)n1nc(C2CC2)cc(-c2ccccc2)c1=O (centres undefined)
20 | 114 to 115 °C | Cn1c(C=O)cnc1[N+](=O)[O-]
21 | 170 to 172 °C | COc1ccc(N)c(C(=O)Cc2nnnn2C)c1
22 | 160 °C | CC(C)=CCN1Cc2c(Cl)ccc3[nH]c(=S)n(c23)C[C@@H]1C
23 | 108 to 109 °C | Cc1c(Cl)cccc1S(=O)(=O)Nc1ccc2sccc2c1
24 | 178 to 179 °C | NC(=S)N1CCN(c2ccccc2)CC1

Row | melting point | SMILES
25 | 98 °C | O=C1CSC(=S)N1c1ccccn1
26 | 215 to 218 °C | NCc1ccc(-n2c(-c3cccnc3N)nc3ccc(-c4ccccc4)nc32)cc1
27 | 202 to 205 °C | O=C(Cc1c(-c2cccnc2)c2cc(CN3CCN(c4ccccc4)CC3)c(Cl)cc2oc1=O)Nc1ccc(F)cc1C(F)(F)F
28 | 139 to 140 °C | Cc1c(CCC2CC(OC3CCCCO3)CC(=O)O2)c2c(c(C)c1OC(=O)c1ccccc1)CC(C)(C)O2 (centres undefined)
29 | 44 to 46 °C | COC(=O)C(Sc1ccc(Cl)cc1)c1ccc(I)cc1 (centres undefined)
30 | 213 to 214 °C | Cn1ncc2c1-c1c(Oc3ccc(CC(=O)O)cc3)sc(C(N)=O)c1CC2
31 | 175 to 176 °C | CC(C)C(NC(=O)OCc1ccccc1)C(=O)NC(Cc1ccccc1)C(O)C(Cc1ccccc1)NC(=O)C(NC(=O)N1CCN(C)CC1)C(C)C (centres undefined)
32 | 139 to 142 °C | O=C(O)C=CC(=O)c1cccs1
33 | 153 to 154 °C | CC(C)C[C@H](N)[C@@H](O)CCS(=O)(=O)CCc1ccccc1
34 | 106 to 107 °C | CCOC(=O)c1cc(NCc2c(C)cccc2CC)c2nc(COC)n(C)c2c1
35 | 94 to 96 °C | Cn1c(C(F)(F)F)cc(=O)n(-c2cc(OC(=O)CCC(=O)OCCCl)c(Cl)cc2F)c1=O
36 | 102 to 103 °C | CC(C)=CCCC(C)=CCOc1ccc(C(=O)Nc2cccnc2)cc1
37 | 200 °C | O=CN(Cn1cc(Cl)cnc1=O)c1ccccc1
38 | 104 to 105 °C | COc1ccc2cc([C@H](C)C(=O)OCC(=O)N(C)CCCO[N+](=O)[O-])ccc2c1
39 | 163 to 165 °C | Cc1ccc(Cc2cnc(NCCCNc3ccccn3)[nH]c2=O)cn1
40 | 211 to 217 °C | O=c1[nH]c(=S)nc2n1C(c1ccc(F)cc1)CO2 (centres undefined)
41 | 101 °C | Cc1nn(C)c(C(N)=O)c1Cl
42 | 94 °C | C=Cc1ccc(CC(=O)O)cc1
43 | 105 to 106 °C | COc1cc([N+](=O)[O-])c(C(OC(=O)C(Cl)(Cl)Cl)c2ccccc2)c([N+](=O)[O-])c1OC (centres undefined)
44 | 117 to 119 °C | CCOc1ccc(C=C2N=C(C)OC2=O)cc1OCC
45 | 147 to 148 °C | CC(C)c1nc(CN2C(=O)C3(COc4cc5c(cc43)OCO5)c3c(Cl)cccc32)cs1 (centres undefined)
46 | 153 to 155 °C | O=C1CCC(N2Cc3c(OCc4ccc(CN5Cc6ccccc6C5)cc4)cccc3C2=O)C(=O)N1 (centres undefined)
47 | 171 to 172 °C | COC(=O)c1ccc(-c2nc(-c3ccc(Cl)s3)cs2)cc1
48 | 108 to 110 °C | COc1ccc(/C(=C\C=C\C(=O)NCCCCc2cccnc2)c2cccnc2)cc1

Row | melting point | SMILES
49 | 185 to 186 °C | Cc1ccc(C(=O)NC(NC(=S)Nc2c(F)cccc2F)C(F)(F)F)cc1 (centres undefined)
50 | 77 to 78 °C | O=c1n(CCCCl)nc2n1-c1ccccc1OC2
51 | 120 to 121 °C | CCOC(OCC)c1cc(NC(c2ccccc2)(c2ccccc2)c2ccccc2)c(F)c(CC2CC2)n1
52 | 117 to 119 °C | O=C(CN1C(=O)C2(COc3cc4c(cc32)OCCO4)c2ccccc21)Nc1ccccc1F (centres undefined)
53 | 271 to 273 °C | COc1ccc(CNC(=O)c2nc3scc(COCc4ccc(C(=O)O)cc4)c3c(=O)[nH]2)cc1
54 | 170 to 171 °C | COc1cc2cc(-c3ccccc3Cl)sc2c(Cl)c1Cl
55 | 153 to 154 °C | NNC(=O)c1c(OCC(F)(F)F)cccc1OCC(F)(F)F
56 | 75 to 80 °C | O=C(O)c1c(F)cc(OCCNC(=O)C2Cc3ccccc3N2S(=O)(=O)c2ccc(-c3ccc(F)cc3Cl)cc2)cc1F (centres undefined)
57 | 87 to 88 °C | CCCCOC(=O)CS(=O)(=O)C=C1SC=CS1
58 | 211 to 213 °C | CSc1ccc(N2CCN(c3c(C)c(C)c4c(c3C)CC(C)(C)O4)CC2)cc1
59 | 129 to 131 °C | Clc1ccc(-c2nc(Cl)nc(Cl)c2-c2ccccc2)cc1
60 | 145 to 147 °C | CCOC(=O)c1c(C=O)c2ccc3sc4ccccc4c3c2n1C
61 | 157 to 158 °C | COc1cccc(-c2ccc3c(c2)C(C)(C)C(=O)N3)c1
62 | 148 to 150 °C | O=C(NCCCN1NC=NN1)c1ccccc1[N+](=O)[O-]
63 | 140 to 141 °C | CC(C)(C)OC(=O)Nc1c(C#N)cnn1-c1ccc(Cl)c(Cl)c1Cl
64 | 80 °C | Cc1cccc(NC(=S)SCC(=O)C(C)(C)C)n1
65 | 231 to 233 °C | O=c1[nH]c2ccccc2c2cc(C(O)c3ccccc3)nn12 (centres undefined)
66 | 79 to 82 °C | CCCOc1cc(CCCOc2c(CC(=O)O)cccc2OC)n(Cc2ccccc2OC)n1
67 | 259 to 261 °C | O=[N+]([O-])c1ccc2c(C3=CCC4(CC3)OCCO4)c[nH]c2c1
68 | 82 to 84 °C | CCCCCCCCCCCCCCCC(=O)N[C@@H](CSC(=O)CCCCCCCCCCCCCCC)C(=O)O
69 | 200 to 203 °C | O=C1OC(c2ccccc2)=NC1=NNc1ccccc1
70 | 128 to 130 °C | Cc1cccc2nc3n(c12)CC(c1ccccn1)S3 (centres undefined)
71 | 64 °C | CC(C)(O)/C=C\C(C)(C)O
72 | 104 to 107 °C | CSCC(=O)[C@H](Cc1ccccc1)NC(=O)[C@H](CC(C)C)NC(=O)CCc1ccccc1

Row | melting point | SMILES
73 | 126 to 128 °C | CC1CCCCN1c1nc(-c2ccc(Cl)cc2)c(CCC(=O)O)o1 (centres undefined)
74 | 107 to 109 °C | CCCCCCCCCCCCCCCCN=C=O
75 | 132 °C | CC1C(=O)N(c2ccc(Oc3ccccc3)cc2)C(=S)N1c1ccccc1 (centres undefined)
76 | 152 to 155 °C | O=c1oc(Nc2ccccc2F)nc2ccccc12
77 | 114 °C | CC(=Cc1ccccc1)c1cc2c(cc1Cl)C(C)(C)CCC2(C)C
78 | > 330 °C | CC(C)(C)c1ccc(N2C(=O)c3ccc4c5cccc6cccc(c7ccc(c3c47)C2=O)c65)cc1
79 | 102 to 105 °C | Cn1cncc1COCC(O)c1ccccc1 (centres undefined)
80 | 250 to 254 °C | CCNc1c([N+](=O)[O-])cc2c(=O)c(C(=O)O)cn(-c3cc(N)c(F)cc3F)c2c1C
81 | 262 °C | CN(C)C=Nc1sc(C=O)c(S(=O)(=O)c2ccccc2)c1C#N
82 | 199 to 202 °C | COc1ccc(-n2c(=O)c(-c3ccccc3)nc3ccccc32)cc1
83 | 101 to 103 °C | O=C1c2ccccc2C(=O)N1CCCOC(Cl)Cl
84 | 112 to 115 °C | O=[N+]([O-])c1cccc(/C=C/c2csc(C3CCC3)n2)c1
85 | 113 to 116 °C | COc1ccc2c(c1)CN(C#N)CC2c1cc(OC)c(OC)c(OC)c1 (centres undefined)
86 | 183 to 185 °C | CCCCc1c(O)c2nccnc2n(-c2ccccc2)c1=O
87 | 153 to 155 °C | CN(O)C(=O)Cc1ccc(-c2ccc(OCc3ccc4ccccc4n3)cc2)c(F)c1
88 | 160 to 164 °C | C#CCN=C(NC#N)SC
89 | 101 to 102 °C | CC(=O)NCc1ccc2ccn(C3CCN(CCc4ccccc4F)CC3)c2c1
90 | 155 to 156 °C | CN1CCC2(CC1)NCc1cc(C(C)(C)C)cc(I)c1O2
91 | 106 to 108 °C | S=c1[nH]ccn1Cc1ccco1
92 | 294 to 295 °C | Cn1cc(C(=O)c2sc(NC(=O)c3ccncc3)nc2-c2ccco2)ccc1=O
93 | 131 to 133 °C | Cc1ccc(C(=O)N2CCN(CC3(C)Cc4c(C)c(N)c(C)c(C)c4O3)CC2)cc1 (centres undefined)
94 | 142 to 143 °C | Cc1nc(N2CCN(CC3CC3)C2=O)sc1C(=O)NCc1ccccc1
95 | 105 to 109 °C | O=C(O)C(Oc1ccc(OCc2ccccc2)cc1)c1ccc(OCCCOc2ccc(Cl)cc2)cc1 (centres undefined)

Row | SMILES | melting point
96 | Clc1ccc2c(c1)N(C1CN3CCC1CC3)c1ccccc1S2 (centres undefined) | 165 °C
97 | O=P(O)(O)Cc1ccccc1CP(=O)(O)O | > 300 °C
98 | CC(C)C(=NSN(C)C(=O)Oc1cccc2c1OC(C)(C)C2)Sc1ccccc1 | 104 to 106 °C
99 | O=C(Cc1ccccc1)N=C1SCCN1Cc1ccc(Cl)nc1 | 157 to 158 °C

Reference: a melting point compilation (Tetko et al.; mined from patent text by program, amines drawn as free bases though some values may be those of a salt)
